The text below walks through data of patent US6479033B1, “Antitumor cystostatic and contrast agent” (priority 1994, dated 2002).

The subject of the experiment is Tumor. The experiment can be described thus: Tumor growth and contrasting agent in the liver after treatment (carboplatin, Spherex, gelatin foam). The format is in vivo. The following applies: carboplatin encapsulated in SUV-PEG. An excerpt: The following Table summarizes results obtained using carboplatin as the cytostatic drug encapsulated in SUV-PEG and Spherex gelatin foam as the starch particle.

As to `N.N.O=C([O-])C1(C(=O)[O-])CCC1.[Pt+2]` [Carboplatin, carboplatin], the “Tumor growth by a factor of (7 days after treatment)” value was 1.45 ± 0.96.
